Assay results as given in patent US9428465B2, “Acid ceramidase inhibitors and their use as medicaments” (FONDAZIONE ISTITUTO ITALIANO DI TECHNOLOGIA, priority 2012, dated 2016).

Key:
SW403 cells [1] = experiment: Isobolographic analysis of combined treatment of SW403 cells (ED50, trypan blue assay); format: cell-based, human
Protocol: Interaction between drugs was assessed by isobolographic analysis, based on the concept of dose-equivalence which follows from the dose effect curves of the individual drugs (Tallarida R I, Interactions between drugs and occupied receptors. Pharmacol. Ther. 2007, 113, 197-209; Tallarida R J, Raffa R B, The application of drug dose equivalence in the quantitative analysis of receptor occupation and drug combinations. Pharmacol. Ther. 2010; 127, 165-174). Specifically, the individual drugs' potency and efficacy allow calculating the expected effect of a combination of the two drugs.
In the experiment of combined treatment, isobolograms were constructed by plotting on vertical and horizontal axes the ED50 data of the single drugs measured by trypan blue assay after subcronic treatment for 72 hrs. The straight line with axial intercepts represents the isobole of additivity and allows calculating the theoretical additive dose. Synergism is indicated by an observed pair (x, y) that plots below the isobole for the specified effect, whereas sub-additivity is indicated when an observed pair (x, y) plots above the isobole.

[2] = tested on: human colon adenocarcinoma cell line SW403; experiment: Ceramide levels in SW403 cells (lipid extraction, LC/MS); format: cell-based; details: 3 μM, 3 hrs, vs. vehicle
Protocol: Lipids were extracted using a chloroform/methanol mixture (2:1 vol/vol, 3 mL) containing internal standards. The organic phases were collected, dried under nitrogen, and dissolved in methanol/chloroform (3:1 vol/vol) for LC/MS analyses.
Ceramides were analyzed by LC/MS^n, using a 1100-LC system (Agilent Technologies) equipped with an Ion Trap XCT and interfaced with ESI (Agilent Technologies). They were separated on a Poroshell 300 SB C18 column (2.1×75 mm i.d., 5 μm; Agilent Technologies) maintained at 30° C. A linear gradient of methanol in water containing 5 mM ammonium acetate and 0.25% acetic acid (from 80% to 100% of methanol in 3 man) was applied at a flow rate of 1 mL/min. […]
Tissue-derived ceramides were identified by comparison of their LC retention times and MS^n fragmentation patterns with those of authentic standards (Avanti Polar Lipids). Extracted ion chromatograms were used to quantify myristoyl ceramide (C140, m/z 510.5>492.5>264.3), palmitoyl ceramide (C16:0, m/z 538.5>520.3>264.3), stearoyl ceramide (C18:0 m/z 566.5>548.3>264.3), lignoceroylceramide (C24:0 m/z 650.5>632.3>264.3), nervonoylceramide (C24:1 m/z 648.5>630.3>264.3) and using lauroyl ceramide standard (m/z 482.5>464.5>264.3). […]

SW403 cells [3] = experiment: SW403 cell viability, trypan blue assay; format: cell-based, human; details: prolonged (72 hrs) treatment, concentration-response, FIGS. 2A and 2B
Protocol: (§1) Cells were seeded in 12- or 96-well plates in complete medium 24 hrs before treatment and then incubated for 24 hrs (single treatment) or 72 hrs (multiple treatments) with different drug concentrations in media without serum. Cell viability was then evaluated.
The trypan blue exclusion assay is based on the principle that viable cells have intact cell membrane and can therefore exclude the trypan blue dye. Cell viability was measured after 24 hrs incubation with the drug. Cells were harvested, centrifuged at 1200 rpm for 10 min and pellets re-suspended in PBS. To evaluate viability, cells were diluted 1:1 with 0.4% trypan blue dye (Sigma), incubated for 1 min and white (viable) cells were counted with a hemacytometer.

[4] = target: rat acid ceramidase (rAC) (Rattus norvegicus (Rat), UniProt Q6P7S1); experiment: Rat acid ceramidase (rAC) enzymatic assay, LC/MS of lauric acid; format: biochemical; details: rat acid ceramidase, 100 μM N-lauroyl ceramide, pH 4.5
Protocol: A lysosomal rat acid ceramidase (rAC) protein preparation was obtained from cells stably expressing rAC resuspended in 20 mM Tris HCl (pH 7.5) with 0.32 M sucrose. Samples were sonicated and centrifuged at 800×g for 15 min at 4° C. Supernatants were then centrifuged at 12,000×g for 30 min at 4° C. Pellets were re-suspended in PBS pH 7.4 and subjected to 2 freeze-thaw cycles at −80° C. The suspension was finally centrifuged at 105,000×g for 1 hr at 4° C. and the supernatant containing rAC was then used in the enzymatic assay.
r-AC protein samples were pre-incubated with various concentrations of test compounds or vehicle control in 100 mM NaH2PO4/citrate buffer pH 4.5, 0.1% Nonidet P-40, 3 mM DTT for 30 min at 37° C. Samples were incubated with 100 μM N-lauroyl ceramide (Nu-Chek Prep, Elysian, Minn.) at 37° for 30 min. The reaction was stopped by addition of a mixture of chloroform/methanol (2:1 vol/vol) containing 1 nmol of heptadecanoic acid (HDA; NuChek Prep). The organic phases were collected, dried under nitrogen, and analyzed by LC/MS in the negative-ion mode using heptadecanoic acid (HDA) as internal standard (m/z=199 for lauric acid, m/z=269 for HDA). HDA was eluted on an XDB Eclipse C18 column isocratically at 2.2 mL/min for 1 min with a solvent mixture of 95% methanol and 5% water, both containing 0.25% acetic acid, and 5 mM ammonium acetate. The column temperature was 50° C. Electrospray ionization (ESI) was in the negative mode, capillary voltage was 4 kV, and fragmentor voltage was 100 V. Nitrogen was used as drying gas at a flow rate of 13 L/min and at a temperature of 350° C. Nebulizer pressure was set at 60 psi. We monitored [M-H]− in the selected-ion monitoring (SIM) mode using HDA as internal standard.
Inhibition of rAC activity was calculated as a reduction of lauric acid in the samples compared to vehicle controls. Median inhibitory concentration (IC50) values were calculated by non-linear regression analysis of log [concentration]/inhibition curves using. GraphPad Prism 5 (GraphPad Software, Inc., CA, USA) applying a standard slope curve fitting.

SW403 cells [5] = experiment: SW403 cell viability, MTT assay; format: cell-based, human
Protocol: as §1
Alternatively, cell viability was assessed measuring mitochondrial functionality by the MIT assay, which is based on the reduction of the soluble tetrazolium salt MTT [(3-(4,5-dimethylthiazol-2-yl)-2,5-diphenyltetrazolium bromide] into insoluble formazan by mitochondria. Briefly, after treatment, cells were washed with PBS and incubated with 0.5 mg/ml, MTT for 2 hrs at room temperature, MTT reduction was quantified by absorbance at 570 nm using a UV-visible plate reader.

[6] = SW403 cells, 72 hrs, isobole of additivity, higher than the experimental values

Chain of rat acid ceramidase (rAC) (Q6P7S1 142-394): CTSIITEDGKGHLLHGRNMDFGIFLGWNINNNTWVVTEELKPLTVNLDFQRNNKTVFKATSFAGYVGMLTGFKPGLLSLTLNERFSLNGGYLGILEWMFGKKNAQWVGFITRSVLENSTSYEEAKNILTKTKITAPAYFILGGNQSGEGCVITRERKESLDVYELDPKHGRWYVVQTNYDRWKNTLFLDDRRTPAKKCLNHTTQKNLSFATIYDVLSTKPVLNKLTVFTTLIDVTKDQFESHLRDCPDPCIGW
Chain of rat acid ceramidase (rAC) (Q6P7S1 21-141): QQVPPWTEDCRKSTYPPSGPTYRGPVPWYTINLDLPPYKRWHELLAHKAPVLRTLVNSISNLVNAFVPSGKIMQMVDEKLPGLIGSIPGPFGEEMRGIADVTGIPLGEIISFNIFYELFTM

**Q.** With `CCCCCCNC(=O)n1cc(C(F)(F)F)c(=O)[nH]c1=O` [Example 4, N-hexyl-2,4-dioxo-5-(trifluoromethyl)pyrimidine-1-carboxamide] as the molecule, how does the “theoretical dose (Th) to be used with 20 nM taxol to obtain an additive effect” value (SW403 cells [1]; [6]) read?
**A.** The value was 4.9 µM.

**Q.** What about the “theoretical dose (Th) to be used with 300 nM 5FU to obtain an additive effect” value (SW403 cells [1]; [6]) of the same molecule?
**A.** The value was 7.8 µM.

**Q.** And the “interaction with taxol in reducing viability of SW403 cells (isobologram)” value (SW403 cells [1]; prolonged treatment, 20 nM taxol, trypan blue ED50)?
**A.** Its value is “synergistic effect”.

**Q.** What about the “interaction with 5-fluorouracil in reducing viability of SW403 cells (isobologram)” value (SW403 cells [1]; prolonged treatment, 300 nM 5FU, trypan blue ED50) of the same molecule?
**A.** The value was “synergistic effect”.

**Q.** And the “levels of C14:0, C16:0 and C18:0 ceramide” value [2]?
**A.** Its value is “increased”.

**Q.** What about the “SW403 cell viability (trypan blue assay)” value (SW403 cells [3]) of the same molecule?
**A.** Its value is “reduction of the viability”.

**Q.** What about the IC50 [4] of the same molecule?
**A.** Its IC50 is 0.01 µM.

**Q.** What about the “interaction with 5FU in reducing cell viability (MTT assay)” value (SW403 cells [5]; 72 hrs, compound 30 μM + 5FU 300 nM) of the same molecule?
**A.** Its value is “synergistic effect”.

**Q.** What about the “SW403 cell viability (MTT assay)” value (SW403 cells [5]; sub-chronic treatment 72 hrs, compounds 30 μM, 5FU 300 nM) of the same molecule?
**A.** Its value is “reduced cell viability”.
